One experiment concerns HOP-62. Description: Antiproliferative activity against HOP62 cell line. It is filed as functional, Homo sapiens. Set-up: unit not given here.
The subject of a further experiment is NCI-H460. Description: Antiproliferative activity against NCI-H460 cell line. The format is functional, Homo sapiens.
Experiment [1] addresses Epidermal growth factor receptor (Homo sapiens) (UniProt P00533). Description: Inhibition of EGFR at 10 uM in presence of 0.1 uM ATP.
Experiment [2] addresses Receptor tyrosine-protein kinase erbB-2 (Homo sapiens) (UniProt P04626). Description: Inhibition of ErbB2 at 10 uM in presence of 0.1 uM ATP.
The target in experiment [3] is Insulin-like growth factor 1 receptor (Homo sapiens) (UniProt P08069). Briefly: Inhibition of IGF1R at 10 uM in presence of 0.1 uM ATP.
Experiment [4] addresses Vascular endothelial growth factor receptor 1 (Homo sapiens) (UniProt P17948). Description: Inhibition of VEGFR1 at 10 uM in presence of 0.1 uM ATP.
Experiment [5] deals with Vascular endothelial growth factor receptor 2 (Homo sapiens) (UniProt P35968). Briefly: Inhibition of VEGFR2 at 10 uM in presence of 0.1 uM ATP.
Experiment [6] deals with Angiopoietin-1 receptor (Homo sapiens) (UniProt Q02763). Briefly: Inhibition of TIE2 at 10 uM in presence of 0.1 uM ATP.
Experiment [7] has as its target T1, Ephrin type-B receptor 4 (Homo sapiens) (UniProt P54760).
T1 sequence (whole entry): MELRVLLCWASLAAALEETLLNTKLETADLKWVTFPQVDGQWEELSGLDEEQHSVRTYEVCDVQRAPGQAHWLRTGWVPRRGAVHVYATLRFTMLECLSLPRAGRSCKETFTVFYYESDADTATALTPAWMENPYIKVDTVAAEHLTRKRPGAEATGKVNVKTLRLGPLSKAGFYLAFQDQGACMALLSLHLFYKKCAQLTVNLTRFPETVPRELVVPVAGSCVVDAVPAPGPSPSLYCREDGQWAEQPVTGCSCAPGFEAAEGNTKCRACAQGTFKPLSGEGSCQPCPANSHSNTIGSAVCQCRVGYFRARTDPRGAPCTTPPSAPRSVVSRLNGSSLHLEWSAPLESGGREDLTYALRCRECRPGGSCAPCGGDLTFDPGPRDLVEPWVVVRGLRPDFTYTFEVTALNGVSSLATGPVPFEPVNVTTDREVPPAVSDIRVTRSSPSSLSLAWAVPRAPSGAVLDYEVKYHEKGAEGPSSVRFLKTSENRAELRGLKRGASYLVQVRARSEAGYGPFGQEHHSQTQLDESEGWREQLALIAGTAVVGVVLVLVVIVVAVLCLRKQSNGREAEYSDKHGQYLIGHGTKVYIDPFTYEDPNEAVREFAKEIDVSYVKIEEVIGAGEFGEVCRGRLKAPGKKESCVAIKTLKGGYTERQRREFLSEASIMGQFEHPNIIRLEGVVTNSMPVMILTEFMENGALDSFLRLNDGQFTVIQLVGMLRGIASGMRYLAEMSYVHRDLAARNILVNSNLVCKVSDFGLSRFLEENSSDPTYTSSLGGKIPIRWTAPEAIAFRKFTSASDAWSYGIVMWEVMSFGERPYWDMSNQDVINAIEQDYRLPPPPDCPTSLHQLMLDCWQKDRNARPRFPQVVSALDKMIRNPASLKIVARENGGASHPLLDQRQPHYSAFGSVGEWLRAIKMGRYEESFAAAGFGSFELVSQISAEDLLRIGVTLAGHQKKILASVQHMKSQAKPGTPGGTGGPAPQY
Description: Inhibition of EPHB4 at 10 uM in presence of 0.1 uM ATP.

Bounds are passed on as bounds.

In ChEMBL document CHEMBL1146950, “Matrix compare analysis discriminates subtle structural differences in a family of novel antiproliferative agents, diaryl-3-hydroxy-2,3,3a,10a-tetrahydrobenzo[b]cycylopenta[e]azepine-4,10(1H,5H)-diones” (2006) one finds pGI50 and inhibition data, which are given here for 15 compounds.

Chain of Angiopoietin-1 receptor (Homo sapiens) (Q02763 whole entry): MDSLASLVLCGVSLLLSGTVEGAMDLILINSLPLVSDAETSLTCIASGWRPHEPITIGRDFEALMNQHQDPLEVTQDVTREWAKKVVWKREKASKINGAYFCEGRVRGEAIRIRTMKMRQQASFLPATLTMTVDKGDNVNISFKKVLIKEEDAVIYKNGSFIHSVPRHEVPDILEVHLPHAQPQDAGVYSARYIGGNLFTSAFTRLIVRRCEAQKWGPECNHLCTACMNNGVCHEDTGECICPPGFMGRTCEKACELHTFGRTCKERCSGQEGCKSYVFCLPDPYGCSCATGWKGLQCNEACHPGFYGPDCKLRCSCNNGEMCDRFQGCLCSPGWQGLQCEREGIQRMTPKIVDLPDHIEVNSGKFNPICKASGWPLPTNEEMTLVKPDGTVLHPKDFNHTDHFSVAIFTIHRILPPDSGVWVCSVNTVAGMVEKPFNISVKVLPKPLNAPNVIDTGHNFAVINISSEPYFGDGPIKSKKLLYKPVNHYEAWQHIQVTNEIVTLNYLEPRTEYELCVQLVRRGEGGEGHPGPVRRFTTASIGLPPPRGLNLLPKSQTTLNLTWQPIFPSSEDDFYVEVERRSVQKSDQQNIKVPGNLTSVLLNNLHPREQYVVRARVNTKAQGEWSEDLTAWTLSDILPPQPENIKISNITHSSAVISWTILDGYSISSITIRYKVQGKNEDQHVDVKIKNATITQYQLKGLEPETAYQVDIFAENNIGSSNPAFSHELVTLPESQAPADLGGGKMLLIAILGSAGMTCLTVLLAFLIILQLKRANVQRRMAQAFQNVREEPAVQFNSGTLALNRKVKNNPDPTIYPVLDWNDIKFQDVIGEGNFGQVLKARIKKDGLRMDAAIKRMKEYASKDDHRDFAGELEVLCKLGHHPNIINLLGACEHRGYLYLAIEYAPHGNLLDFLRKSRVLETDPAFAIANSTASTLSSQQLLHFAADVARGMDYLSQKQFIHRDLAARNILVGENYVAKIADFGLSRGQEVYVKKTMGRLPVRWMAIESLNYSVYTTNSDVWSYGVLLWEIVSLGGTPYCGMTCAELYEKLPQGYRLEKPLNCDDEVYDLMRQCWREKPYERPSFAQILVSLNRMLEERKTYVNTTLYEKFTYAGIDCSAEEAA
Chain of Vascular endothelial growth factor receptor 2 (Homo sapiens) (P35968 whole entry): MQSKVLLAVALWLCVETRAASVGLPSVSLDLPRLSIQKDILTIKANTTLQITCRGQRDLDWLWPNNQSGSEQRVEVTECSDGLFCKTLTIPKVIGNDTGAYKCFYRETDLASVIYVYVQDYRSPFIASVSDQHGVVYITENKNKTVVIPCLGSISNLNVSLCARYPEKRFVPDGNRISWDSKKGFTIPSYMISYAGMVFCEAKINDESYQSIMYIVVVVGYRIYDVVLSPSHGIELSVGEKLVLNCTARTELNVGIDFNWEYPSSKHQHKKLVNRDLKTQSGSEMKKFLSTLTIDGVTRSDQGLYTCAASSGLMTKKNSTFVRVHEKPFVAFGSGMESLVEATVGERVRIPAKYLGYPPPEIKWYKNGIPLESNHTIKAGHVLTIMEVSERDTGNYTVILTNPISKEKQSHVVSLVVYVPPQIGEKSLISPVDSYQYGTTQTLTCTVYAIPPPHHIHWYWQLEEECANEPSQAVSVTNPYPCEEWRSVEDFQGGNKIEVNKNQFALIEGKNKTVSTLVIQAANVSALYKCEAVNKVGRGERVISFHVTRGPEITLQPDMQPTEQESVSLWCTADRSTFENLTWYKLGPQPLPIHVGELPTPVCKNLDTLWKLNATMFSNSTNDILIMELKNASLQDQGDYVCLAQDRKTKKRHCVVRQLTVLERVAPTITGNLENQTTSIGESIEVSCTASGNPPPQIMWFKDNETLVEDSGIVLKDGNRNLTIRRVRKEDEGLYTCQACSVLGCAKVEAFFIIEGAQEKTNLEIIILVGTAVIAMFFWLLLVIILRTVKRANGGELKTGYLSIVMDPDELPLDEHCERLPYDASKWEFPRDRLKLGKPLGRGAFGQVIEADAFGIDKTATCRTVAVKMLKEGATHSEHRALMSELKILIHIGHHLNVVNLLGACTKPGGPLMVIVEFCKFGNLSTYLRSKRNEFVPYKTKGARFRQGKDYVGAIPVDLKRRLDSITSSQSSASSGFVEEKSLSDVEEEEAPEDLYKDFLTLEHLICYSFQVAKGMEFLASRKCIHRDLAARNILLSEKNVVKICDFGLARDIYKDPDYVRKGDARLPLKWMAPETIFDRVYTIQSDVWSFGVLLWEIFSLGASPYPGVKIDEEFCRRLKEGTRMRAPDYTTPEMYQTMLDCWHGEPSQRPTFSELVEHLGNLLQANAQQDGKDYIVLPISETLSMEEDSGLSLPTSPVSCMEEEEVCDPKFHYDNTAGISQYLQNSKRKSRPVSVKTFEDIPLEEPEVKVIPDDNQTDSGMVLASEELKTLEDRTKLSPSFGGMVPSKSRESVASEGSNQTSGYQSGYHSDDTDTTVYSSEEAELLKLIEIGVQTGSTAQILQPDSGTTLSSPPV
Chain of Receptor tyrosine-protein kinase erbB-2 (Homo sapiens) (P04626 whole entry): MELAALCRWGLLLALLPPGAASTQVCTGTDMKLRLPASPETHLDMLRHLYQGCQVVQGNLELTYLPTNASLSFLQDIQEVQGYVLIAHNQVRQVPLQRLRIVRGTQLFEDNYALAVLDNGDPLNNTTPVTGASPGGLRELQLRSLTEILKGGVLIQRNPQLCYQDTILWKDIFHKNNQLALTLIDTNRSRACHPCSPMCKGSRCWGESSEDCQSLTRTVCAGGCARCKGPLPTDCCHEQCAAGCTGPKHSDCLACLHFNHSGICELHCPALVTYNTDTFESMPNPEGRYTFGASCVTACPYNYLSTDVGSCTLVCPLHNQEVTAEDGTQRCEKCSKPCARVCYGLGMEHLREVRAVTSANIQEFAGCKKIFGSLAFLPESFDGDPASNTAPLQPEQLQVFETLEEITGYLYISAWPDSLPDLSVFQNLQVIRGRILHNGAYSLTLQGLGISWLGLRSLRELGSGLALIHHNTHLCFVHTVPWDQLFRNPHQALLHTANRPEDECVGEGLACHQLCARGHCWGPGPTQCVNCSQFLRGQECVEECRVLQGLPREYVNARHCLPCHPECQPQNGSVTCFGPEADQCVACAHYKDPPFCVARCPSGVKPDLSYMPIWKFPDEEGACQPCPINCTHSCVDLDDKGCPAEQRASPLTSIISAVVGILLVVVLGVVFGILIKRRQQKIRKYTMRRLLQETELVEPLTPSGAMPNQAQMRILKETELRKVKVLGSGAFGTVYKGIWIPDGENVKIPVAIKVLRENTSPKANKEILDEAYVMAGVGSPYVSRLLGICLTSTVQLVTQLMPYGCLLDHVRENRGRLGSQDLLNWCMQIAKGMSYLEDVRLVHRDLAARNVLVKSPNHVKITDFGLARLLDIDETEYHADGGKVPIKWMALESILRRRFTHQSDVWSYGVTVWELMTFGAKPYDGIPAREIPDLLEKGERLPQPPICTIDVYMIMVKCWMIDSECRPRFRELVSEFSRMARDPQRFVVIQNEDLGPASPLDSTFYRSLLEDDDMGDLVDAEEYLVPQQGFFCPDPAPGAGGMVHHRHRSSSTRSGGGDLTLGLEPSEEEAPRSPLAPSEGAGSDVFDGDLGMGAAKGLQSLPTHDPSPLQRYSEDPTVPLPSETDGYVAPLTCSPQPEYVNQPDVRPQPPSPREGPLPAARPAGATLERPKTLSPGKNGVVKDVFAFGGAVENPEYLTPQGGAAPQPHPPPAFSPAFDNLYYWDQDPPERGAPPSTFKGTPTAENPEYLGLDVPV
Chain of Vascular endothelial growth factor receptor 1 (Homo sapiens) (P17948 whole entry): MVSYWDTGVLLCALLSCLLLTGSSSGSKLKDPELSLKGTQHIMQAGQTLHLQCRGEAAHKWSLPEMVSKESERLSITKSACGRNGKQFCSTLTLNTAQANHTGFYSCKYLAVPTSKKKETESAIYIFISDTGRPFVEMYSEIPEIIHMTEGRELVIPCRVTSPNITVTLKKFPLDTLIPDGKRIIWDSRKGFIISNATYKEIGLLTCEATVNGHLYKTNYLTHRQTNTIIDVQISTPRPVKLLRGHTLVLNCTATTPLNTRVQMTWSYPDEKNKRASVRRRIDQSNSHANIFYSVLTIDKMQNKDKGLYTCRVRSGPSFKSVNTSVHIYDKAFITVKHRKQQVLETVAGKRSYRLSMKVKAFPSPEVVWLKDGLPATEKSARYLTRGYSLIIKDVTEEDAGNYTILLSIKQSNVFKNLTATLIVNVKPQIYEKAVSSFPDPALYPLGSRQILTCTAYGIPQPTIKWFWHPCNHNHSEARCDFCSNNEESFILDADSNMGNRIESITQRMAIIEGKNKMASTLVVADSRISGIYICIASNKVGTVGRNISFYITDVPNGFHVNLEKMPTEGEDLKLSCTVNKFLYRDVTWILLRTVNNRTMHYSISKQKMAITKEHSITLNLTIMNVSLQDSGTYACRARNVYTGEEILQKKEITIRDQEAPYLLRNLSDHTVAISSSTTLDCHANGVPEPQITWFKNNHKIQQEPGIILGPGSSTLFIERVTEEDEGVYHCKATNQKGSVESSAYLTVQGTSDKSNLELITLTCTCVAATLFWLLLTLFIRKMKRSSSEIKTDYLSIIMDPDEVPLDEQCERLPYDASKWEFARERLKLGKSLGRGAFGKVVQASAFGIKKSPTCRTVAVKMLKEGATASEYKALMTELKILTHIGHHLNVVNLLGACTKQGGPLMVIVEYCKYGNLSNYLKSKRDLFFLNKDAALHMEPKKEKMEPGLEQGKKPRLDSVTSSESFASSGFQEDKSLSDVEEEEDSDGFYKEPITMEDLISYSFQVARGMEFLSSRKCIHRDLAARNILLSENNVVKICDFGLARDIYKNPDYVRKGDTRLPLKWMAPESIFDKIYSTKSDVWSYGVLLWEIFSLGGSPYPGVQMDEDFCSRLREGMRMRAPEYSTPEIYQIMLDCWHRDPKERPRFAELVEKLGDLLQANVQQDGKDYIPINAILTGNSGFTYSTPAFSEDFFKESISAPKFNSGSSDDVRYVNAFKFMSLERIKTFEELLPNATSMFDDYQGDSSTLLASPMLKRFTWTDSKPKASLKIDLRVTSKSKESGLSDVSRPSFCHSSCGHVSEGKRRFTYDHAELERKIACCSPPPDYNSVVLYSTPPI

On to `O=C1c2ccccc2NC(=O)[C@H]2[C@H]1[C@@H](c1ccc(Cl)cc1)C[C@]2(O)c1ccccc1`, for which the pGI50 with HOP-62 is listed as >4; in the experiment on NCI-H460, 5 M.
As to `Cc1ccc([C@@]2(O)[C@H](c3ccccc3)C[C@H]3C(=O)c4ccccc4NC(=O)[C@@H]32)cc1`, the pGI50 in the experiment with HOP-62 is 5.4; with NCI-H460, 4.7 M.
`O=C1c2ccccc2NC(=O)[C@H]2[C@H]1[C@@H](c1ccccc1)C[C@]2(O)c1cccc(Cl)c1`: the results for the pGI50 in the experiment with HOP-62 and with NCI-H460 were >4 and 5.7 M, respectively.
With `O=C1c2ccccc2NC(=O)[C@H]2[C@H]1[C@@H](c1ccccc1)C[C@]2(O)c1ccc2ccccc2c1`, the values for the pGI50 in the experiment on HOP-62 and in the experiment on NCI-H460 were >4 and 6.7 M, respectively.
As for `O=C1c2ccccc2NC(=O)[C@H]2[C@H]1C[C@@H](c1ccccc1)[C@]2(O)c1ccccc1`, the results for the pGI50 in the experiment on HOP-62 and in the experiment with NCI-H460 were 5.4 and 5.4 M, respectively.
On to `O=C1c2ccccc2NC(=O)[C@H]2[C@H]1C[C@@H](c1ccc(Cl)cc1)[C@]2(O)c1ccccc1`, for which the pGI50 with HOP-62 is listed as 5.6; with NCI-H460 it was 5.4 M.
For `COc1ccc([C@@H]2C[C@H]3C(=O)c4ccccc4NC(=O)[C@@H]3[C@@]2(O)c2ccccc2)cc1`, the pGI50 in the experiment on HOP-62 was 5.6; in the experiment on NCI-H460 it was 4.9 M.
For `Cc1ccc([C@@]2(O)[C@H](c3ccc(Cl)cc3)C[C@H]3C(=O)c4ccccc4NC(=O)[C@@H]32)cc1`, in that order: 5.3 and 5.7 M.
Turning to `COc1ccc([C@H]2C[C@](O)(c3ccccc3)[C@H]3C(=O)Nc4ccccc4C(=O)[C@H]23)cc1`, the pGI50 is listed as >4 in the experiment on HOP-62 and 5.1 M in the experiment on NCI-H460.
`O=C1c2ccccc2NC(=O)[C@H]2[C@H]1[C@@H](c1cccc(Cl)c1)C[C@]2(O)c1ccccc1`: the results for the pGI50 in the experiment on HOP-62 and with NCI-H460 were >4 and 5.2 M, respectively. Besides, the inhibition in [1], in experiment [2], in experiment [3], in [4], in [5] and in [6] was > 50% throughout. In [7], the inhibition (in general, the relative decrease from the control value, in per cent) is > 50%.
With `COc1ccc([C@H]2C[C@](O)(c3cccc(Cl)c3)[C@H]3C(=O)Nc4ccccc4C(=O)[C@H]23)cc1`, the values for the pGI50 in the experiment with HOP-62 and in the experiment on NCI-H460 were >4 and 5 M, respectively.
For the compound `O=C1c2ccccc2NC(=O)[C@H]2[C@H]1[C@@H](c1ccccc1)C[C@]2(O)c1ccc2c(c1)OCO2`, the values for the pGI50 in the experiment with HOP-62 and in the experiment with NCI-H460 were 4.1 and 5.6 M, respectively.
Turning to `Cc1ccc([C@@H]2C[C@H]3C(=O)c4ccccc4NC(=O)[C@@H]3[C@@]2(O)c2ccccc2)cc1`, the values for the pGI50 in the experiment on HOP-62 and with NCI-H460 were 5.6 and 5.1 M, respectively.
As for `O=C1c2ccccc2NC(=O)[C@H]2[C@H]1C[C@@H](c1cccc(Cl)c1)[C@]2(O)c1ccccc1`, the pGI50 with HOP-62 came to 5.1; in the experiment with NCI-H460, 4.6 M.
On to `Cc1ccc([C@@H]2C[C@H]3C(=O)c4ccccc4NC(=O)[C@@H]3[C@@]2(O)c2ccc(C)cc2)cc1`, for which the pGI50 in the experiment with HOP-62 is recorded as 5.2; with NCI-H460, 5.4 M.
